# In US11180487B2, “Substituted cyanoindoline derivatives as NIK inhibitors” (Janssen Pharmaceutica NV, priority 2016, dated 2021):
# Read-outs that look alike come from different tables or passages of the source.
# Assays:
# [1] = target: recombinant human NF-kappaB-inducing kinase (NIK/MAP3K14) (Homo sapiens, UniProt Q99558); test: Inhibition of auto-phosphorylation of recombinant human NIK/MAP3K14 activity (AlphaScreen), Biological Assay A; assay type: biochemical; details: averaged values over all measurements on all batches
# Summary of the method: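 AlphaScreen detection with anti-phospho-IKK Ser176/180 antibody plus Protein A acceptor/glutathione donor beads after 1 h, 25 °C reaction of 0.2 nM GST-tagged kinase, 25 μM ATP and compound. Buffer: 50 mM Tris pH 7.5, MgCl2, EGTA, DTT, vanadate; 1% DMSO. IC50 fitted sigmoidally to % inhibition.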
# [2] = test system: P-IKKα levels in L363 (NIK translocated multiple myeloma) cells; test: Effect of compounds on P-IKKα levels in L363 cells (Mesoscale sandwich immuno-assay), Biological Assay B; assay type: cell-based, human; details: 2 hr treatment, averaged values, read-out: Inhibition of pIKKα_L-363 (IC50 (nM))
# Experimental: Effect of Compounds on P-IKKα Levels in L363 (NIK Translocated Multiple Myeloma) Cells
# All compounds tested were dissolved in DMSO and further dilutions were made in culture medium. Final DMSO concentration was 1% (v/v) in cell assays. The human L363 cells (ATCC) were cultured in RPMI 1640 medium supplemented with GlutaMax and 10% fetal calf serum (PAA). Cells were routinely maintained at densities of 0.2×10^6 cells per ml-1×10^6 cells per ml at 37° C. in a humidified 5% CO2 atmosphere. Cells were passaged twice a week splitting back to obtain the low density. Cells were seeded in 96 well plates (Nunc 167008) at 2×10^6 per ml media in a volume of 75 μl per well plus 25 μl 1 μg/ml recombinant human B-cell activating factor (BAFF/BLyS/TNFSF13B). Seeded cells were incubated at 37° C. in a humidified 5% CO2 atmosphere for 24 hr. Drugs and/or solvents were added (20 μl) to a final volume of 120 μl. Following 2 hr treatment plates were removed from the incubator and cell lysis was achieved by the addition of 30 μl 5× lysis buffer followed by shaking on a plate shaker at 4° C. for 10 min. At the end of this incubation lysed cells were centrifuged at 800×g for 20 min at 4° C. and the lysate was assessed for P-IKKα levels by sandwich immuno-assay carried out in anti-rabbit antibody coated Mesoscale plates. Within an experiment, the results for each treatment were the mean of 2 replicate wells. For initial screening purposes, compounds were tested using an 8 point dilution curve (serial 1:3 dilutions). For each experiment, controls (containing MG132 and BAFF but no test drug) and a blank incubation (containing MG132 and BAFF and 10 μM ADS125117, a test concentration known to give full inhibition) were run in parallel. The blank incubation value was subtracted from all control and sample values. To determine the IC50 a sigmoidal curve was fitted to the plot of % inhibition of control P-IKKα levels versus Log10 compound concentration.
# Note: Compounds 237 and 238 were tested at a maximum top concentration of 823 nM.
# [3] = test system: JJN-3 (NIK translocated) multiple myeloma cells; test: Antiproliferative activity on JJN-3 multiple myeloma cells (CellTiter-Glo, 96 hr), Biological Assay C; assay type: cell-based, human; details: JJN-3 (NIK translocated) cells, averaged values, read-out: JJN-3 Proliferation inhibition (IC50 (nM))
# Summary of the method: (§1)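 Growth read-out was CellTiter-Glo luminescence after 96 h compound exposure, given as percent of no-drug control after subtracting a blank of cells read at dosing. Compounds ran as 9-point serial 1:3 dilutions in 0.3% DMSO, duplicate wells, on JJN-3 (15000/well) or KMS12-BM (20000/well) cells in RPMI 1640/10% FCS.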
# [4] = test system: KMS12-BM (NIK WT) multiple myeloma cells; test: Antiproliferative activity on KMS12-BM multiple myeloma cells (CellTiter-Glo, 96 hr), Biological Assay C; assay type: cell-based, human; details: averaged values, read-out: KMS-12 Proliferation inhibition (IC50 (nM))
# Summary of the method: as §1
# recombinant human NF-kappaB-inducing kinase (NIK/MAP3K14), sequence (Q99558 whole entry): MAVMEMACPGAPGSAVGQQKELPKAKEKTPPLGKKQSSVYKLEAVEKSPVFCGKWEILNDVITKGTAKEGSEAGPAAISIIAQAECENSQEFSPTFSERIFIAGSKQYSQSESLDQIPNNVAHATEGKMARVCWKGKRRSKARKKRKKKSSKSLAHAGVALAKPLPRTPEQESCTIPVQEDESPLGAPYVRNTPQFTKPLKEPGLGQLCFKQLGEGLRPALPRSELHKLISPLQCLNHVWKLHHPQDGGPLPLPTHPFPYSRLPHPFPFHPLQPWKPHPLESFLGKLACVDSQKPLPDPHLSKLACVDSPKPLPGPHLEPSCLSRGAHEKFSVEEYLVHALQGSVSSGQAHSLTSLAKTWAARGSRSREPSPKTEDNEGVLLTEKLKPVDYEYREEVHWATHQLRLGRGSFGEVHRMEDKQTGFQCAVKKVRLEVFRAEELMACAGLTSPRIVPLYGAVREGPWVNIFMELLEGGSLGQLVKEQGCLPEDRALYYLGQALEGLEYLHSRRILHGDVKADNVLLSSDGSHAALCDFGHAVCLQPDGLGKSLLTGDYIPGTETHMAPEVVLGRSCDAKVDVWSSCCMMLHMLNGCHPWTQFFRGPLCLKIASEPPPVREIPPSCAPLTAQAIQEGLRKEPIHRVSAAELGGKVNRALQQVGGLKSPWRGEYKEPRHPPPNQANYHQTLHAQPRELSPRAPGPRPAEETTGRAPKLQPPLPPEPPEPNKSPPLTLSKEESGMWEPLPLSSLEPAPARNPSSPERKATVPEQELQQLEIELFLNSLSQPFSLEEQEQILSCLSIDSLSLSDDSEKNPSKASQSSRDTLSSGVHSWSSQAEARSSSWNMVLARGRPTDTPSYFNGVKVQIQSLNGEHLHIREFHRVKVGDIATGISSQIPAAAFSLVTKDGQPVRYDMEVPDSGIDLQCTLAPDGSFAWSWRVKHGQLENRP
SMILES,melting point [°C],IC50 [1] [nM],"IC50 ([2]; Homo sapiens, L-363, 2 h) [nM]","IC50 ([3]; Homo sapiens, JJN-3, 96 h) [nM]","IC50 ([4]; Homo sapiens, KMS-12-BM, 96 h) [nM]",IC50 [2] [nM],IC50 [3] [nM],IC50 [4] [nM]
Cc1ccc(C#N)cc1Nc1nccc(-c2cc(C#N)c3c(c2)[C@@](C)(CNS(C)(=O)=O)CN3)n1 [Compound 212],168,25.1,~4470,–,–,–,–,–
COCCOc1ccc(P(C)(C)=O)cc1Nc1nccc(-c2cc(C#N)c3c(c2)[C@@](C)(CO)CN3)n1 [Compound 5],115,2510,> 10000,–,–,–,–,–
C[C@]1(CO)CNc2c(C#N)cc(-c3ccnc(Nc4cc(C#N)ccc4OCCCN)n3)cc21 [Compound 180],194,3.7,44.7,–,–,–,–,–
C[C@]1(CO)CNc2c(C#N)cc(-c3ccnc(Nc4cc(P(C)(C)=O)ccc4OCC4CC4)n3)cc21 [Compound 6],148,447,> 10000,–,–,–,–,–
Cc1ccc(C#N)cc1Nc1nccc(-c2cc(C#N)c3c(c2)[C@@](C)(C(C)(C)O)CN3)n1 [Compound 135],166,58.9,4370,–,–,–,–,–
Cc1cc(C(=O)NC2CCOCC2)ccc1Nc1nccc(-c2cc(C#N)c3c(c2)C(C)(C)CN3)n1 [Compound 78],–,2.7,7.9,87,2040,–,–,–
COc1cc(CO)c(Cl)cc1Nc1nccc(-c2cc(C#N)c3c(c2)C(C)(CO)CN3)n1 (stereo not drawn) [Compound 24],–,4.5,6,13,2820,–,–,–
CCC(=O)NCC#Cc1cc(C)c(Nc2nccc(-c3cc(C#N)c4c(c3)[C@@](C)(CO)CN4)n2)cc1C#N [Compound 176],–,3.8,5.9,91,> 10000,–,–,–
Cc1ccc(C#N)cc1Nc1ncc(F)c(-c2cc(C#N)c3c(c2)[C@@](C)(CO)CN3)n1 [Compound 147],–,3.9,1.2,302,> 10000,–,–,–
COc1cc(OCC(=O)N(C)C)c(Cl)cc1Nc1nccc(-c2cc(C#N)c3c(c2)C(C)(C)CN3)n1 [Compound 82],–,7.6,5.3,22,> 10000,–,–,–
COc1cc(N2CCOCC2)c(Cl)cc1Nc1nccc(-c2cc(C#N)c3c(c2)C(C)(C)CN3)n1 [Compound 79],–,47.9,75.9,91,~5130,–,–,–
C[C@]1(CO)CNc2c(C#N)cc(-c3ccnc(Nc4ccc(S(C)(=O)=O)cc4CCC4CC4)n3)cc21 [Compound 2],–,4.3,4.8,58,> 10000,–,–,–
C[C@]1(CO)CNc2c(C#N)cc(-c3ccnc(Nc4cc(C#N)ccc4OC4CC4)n3)cc21 [Compound 10],–,7.4,11.5,67,1230,–,–,–
CCCCCc1cc(S(C)(=O)=O)ccc1Nc1nccc(-c2cc(C#N)c3c(c2)[C@@](C)(CO)CN3)n1 [Compound 3],–,10.2,15.1,115,> 10000,–,–,–
CC(=O)NCCCOc1ccc(C#N)cc1Nc1nccc(-c2cc(C#N)c3c(c2)[C@@](C)(CO)CN3)n1 [Compound 181],–,5.1,7.8,195,> 10000,–,–,–

# Further lines, results first:
melting point [°C],IC50 [1] [nM],"IC50 ([2]; Homo sapiens, L-363, 2 h) [nM]","IC50 ([3]; Homo sapiens, JJN-3, 96 h) [nM]","IC50 ([4]; Homo sapiens, KMS-12-BM, 96 h) [nM]",IC50 [2] [nM],IC50 [3] [nM],IC50 [4] [nM],SMILES
194,26.9,288,–,–,–,–,–,Cc1ccc(C#N)cc1Nc1nccc(-c2cc(C#N)c3c(c2)[C@@](C)(CF)CN3)n1 [Compound 164]
108,49,144,–,–,–,–,–,Cc1ccc(CN2CCCC2)cc1Nc1nccc(-c2cc(C#N)c3c(c2)[C@@](C)(CO)CN3)n1 [Compound 216]
116,13.8,355,–,–,–,–,–,CNCc1ccc(C)c(Nc2nccc(-c3cc(C#N)c4c(c3)[C@@](C)(CO)CN4)n2)c1 [Compound 239]
122,13.8,4070,–,–,–,–,–,Cc1ccc(-c2ncc[nH]2)cc1Nc1nccc(-c2cc(C#N)c3c(c2)[C@@](C)(CO)CN3)n1.Cl [Compound 191]
115,3.6,~1230,–,–,–,–,–,Cc1ccc(CNC2CC2)cc1Nc1nccc(-c2cc(C#N)c3c(c2)[C@@](C)(CO)CN3)n1 [Compound 218]
245,20.4,407,–,–,–,–,–,Cc1ccc(C(=O)N2CCN(C)CC2)cc1Nc1nccc(-c2cc(C#N)c3c(c2)[C@@](C)(CO)CN3)n1 [Compound 161]
220,2.8,~1200,–,–,–,–,–,Cc1c(Nc2nccc(-c3cc(C#N)c4c(c3)[C@@](C)(CO)CN4)n2)cc(C#N)cc1C(=O)O [Compound 201]
–,1.3,6.3,240,> 10000,–,–,–,C[C@]1(CO)CNc2c(C#N)cc(-c3ccnc(Nc4cc(C#N)ccc4CO)n3)cc21 [Compound 153]
–,2.3,7.8,272,> 10000,–,–,–,Cc1cc(F)c(CO)cc1Nc1nccc(-c2cc(C#N)c3c(c2)[C@@](C)(CO)CN3)n1 [Compound 152]
160,16.2,3160,–,–,–,–,–,CC(=O)NC[C@@]1(C)CNc2c(C#N)cc(-c3ccnc(Nc4cc(C#N)ccc4C)n3)cc21 [Compound 211]
–,11.2,2.1,102,~4790,–,–,–,Cc1ccc(C#N)cc1Nc1nccc(-c2cc(C#N)c3c(c2)[C@@](C)(COC(=O)[C@H](C)N)CN3)n1 [Compound 138]
181,15.5,5500,–,–,–,–,–,Cc1ccc(CN2CC(F)(F)C2)cc1Nc1nccc(-c2cc(C#N)c3c(c2)[C@@](C)(CO)CN3)n1 [Compound 219]
–,5.4,91.2,1230,> 10000,–,–,–,Cc1ccc(C(=O)NCCN2CCCC2)cc1Nc1nccc(-c2cc(C#N)c3c(c2)[C@@](C)(CO)CN3)n1 [Compound 158]
–,3.6,33.9,12,589,–,–,–,CN1CCC(Oc2ccc(Cl)cc2Nc2nccc(-c3cc(C#N)c4c(c3)C(C)(CO)CN4)n2)CC1 (stereo not drawn) [Compound 25]
–,2.5,4.5,51,891,–,–,–,COc1cc(C(=O)NC2CCOCC2)ccc1Nc1nccc(-c2cc(C#N)c3c(c2)C(C)(CO)CN3)n1 (stereo not drawn) [Compound 21]
–,1.5,2.9,199,> 10000,–,–,–,Cc1ccc(CO)cc1Nc1nccc(-c2cc(C#N)c3c(c2)C(C)(CO)CN3)n1 (stereo not drawn) [Compound 215]
128,34.7,2630,–,–,–,–,–,Cc1ccc(-c2ccnn2C)cc1Nc1nccc(-c2cc(C#N)c3c(c2)[C@@](C)(CO)CN3)n1 [Compound 190]
–,1.4,6.6,141,> 10000,–,–,–,CC(C)Oc1ccc(CO)cc1Nc1nccc(-c2cc(C#N)c3c(c2)[C@@](C)(CO)CN3)n1 [Compound 154]
–,5.5,19.5,288,> 10000,–,–,–,CNC(=O)c1ccc(OC(C)C)c(Nc2nccc(-c3cc(C#N)c4c(c3)[C@@](C)(CO)CN4)n2)c1 [Compound 162]
–,5.8,~1170,~10000,> 10000,–,–,–,Cc1ccc(C#N)cc1Nc1nccc(-c2cc(C#N)c3c(c2)[C@](C)(COS(=O)(=O)O)CN3)n1 [Compound 144]
–,0.9,–,–,–,2.8,91,5500,Cc1ccc(C#N)cc1Nc1nccc(-c2cc(C#N)c3c(c2)[C@@](C)(CO)CN3)n1 [Compound 134]
